Calls of active or inactive are those of the source. How the calls were made is not given here.
System: CCRIS mutagenicity, Ames/micronucleus/aberration tests
Assay: CCRIS mutagenicity studies
[1] = Test System: AMES SALMONELLA TYPHIMURIUM, Strain/Indicator: TA98, Metabolic Activation: NONE, Method: STANDARD PLATE
[2] = Test System: AMES SALMONELLA TYPHIMURIUM, Strain/Indicator: TA100, Metabolic Activation: NONE, Method: STANDARD PLATE
[3] = Test System: AMES SALMONELLA TYPHIMURIUM, Strain/Indicator: TA98, Metabolic Activation: RAT, LIVER, S-9, AROCLOR 1254, Method: STANDARD PLATE
[4] = Test System: AMES SALMONELLA TYPHIMURIUM, Strain/Indicator: TA98, Metabolic Activation: NONE, Method: PREINCUBATION

Structure (SMILES): [Cl][Pd-2]([Cl])([Cl])([Cl])([Cl])[Cl]
- mutagenic call (Test System: AMES SALMONELLA TYPHIMURIUM, Strain/Indicator: TA97A, Metabolic Activation: NONE, Method: STANDARD PLATE): inactive; negative
- mutagenic call (Test System: AMES SALMONELLA TYPHIMURIUM, Strain/Indicator: TA97A, Metabolic Activation: RAT, LIVER, S-9, PHENOBARBITAL AND 5,6-BENZOFLAVONE, Method: STANDARD PLATE): inactive; negative
- mutagenic call (Test System: AMES SALMONELLA TYPHIMURIUM, Strain/Indicator: TA97A, Metabolic Activation: RAT, LIVER, S-9, PHENOBARBITAL AND BETA-NAPHTHOFLAVONE, Method: STANDARD PLATE): inactive; negative
- mutagenic call [1]: inactive; negative
- mutagenic call (Test System: AMES SALMONELLA TYPHIMURIUM, Strain/Indicator: TA98, Metabolic Activation: RAT, LIVER, S-9, PHENOBARBITAL AND 5,6-BENZOFLAVONE, Method: STANDARD PLATE): inactive; negative
- mutagenic call (Test System: AMES SALMONELLA TYPHIMURIUM, Strain/Indicator: TA98, Metabolic Activation: RAT, LIVER, S-9, PHENOBARBITAL AND BETA-NAPHTHOFLAVONE, Method: STANDARD PLATE): inactive; negative
- mutagenic call [2]: inactive; negative
- mutagenic call (Test System: AMES SALMONELLA TYPHIMURIUM, Strain/Indicator: TA100, Metabolic Activation: RAT, LIVER, S-9, PHENOBARBITAL AND 5,6-BENZOFLAVONE, Method: STANDARD PLATE): inactive; negative
- mutagenic call (Test System: AMES SALMONELLA TYPHIMURIUM, Strain/Indicator: TA100, Metabolic Activation: RAT, LIVER, S-9, PHENOBARBITAL AND BETA-NAPHTHOFLAVONE, Method: STANDARD PLATE): inactive; negative
- mutagenic call (Test System: AMES SALMONELLA TYPHIMURIUM, Strain/Indicator: TA102, Metabolic Activation: NONE, Method: STANDARD PLATE): inactive; negative
- mutagenic call (Test System: AMES SALMONELLA TYPHIMURIUM, Strain/Indicator: TA102, Metabolic Activation: RAT, LIVER, S-9, PHENOBARBITAL AND 5,6-BENZOFLAVONE, Method: STANDARD PLATE): inactive; negative
- mutagenic call (Test System: AMES SALMONELLA TYPHIMURIUM, Strain/Indicator: TA102, Metabolic Activation: RAT, LIVER, S-9, PHENOBARBITAL AND BETA-NAPHTHOFLAVONE, Method: STANDARD PLATE): inactive; negative

Structure (SMILES): CCC12OC1(C(=O)OC)C(=O)NC2(C)O (centres undefined)
- mutagenic call (Test System: AMES SALMONELLA TYPHIMURIUM, Strain/Indicator: TA98, Metabolic Activation: NONE, Method: DISK ASSAY): inactive; negative
- mutagenic call [1]: inactive; negative
- mutagenic call (Test System: AMES SALMONELLA TYPHIMURIUM, Strain/Indicator: TA98, Metabolic Activation: RAT, LIVER, S-9, AROCLOR 1254, Method: DISK ASSAY): inactive; negative
- mutagenic call [3]: active; positive

Structure (SMILES): C[C@]12CC[C@@H]3c4ccc(O)c(O)c4CC[C@H]3[C@@H]1CC[C@@H]2O
- mutagenic call (Test System: Ames Salmonella Typhimurium, Strain/Indicator: TA98, Metabolic Activation: None, Method: Standard plate): inactive; negative
- mutagenic call (Test System: Ames Salmonella Typhimurium, Strain/Indicator: TA98, Metabolic Activation: Rat, liver, S-9 (0.5 ml), Method: Standard plate): inactive; negative
- mutagenic call (Test System: Ames Salmonella Typhimurium, Strain/Indicator: TA100, Metabolic Activation: None, Method: Standard plate): inactive; negative
- mutagenic call (Test System: Ames Salmonella typhimurium, Strain/Indicator: TA100, Metabolic Activation: Rat, liver, S-9, Method: Standard plate): inactive; negative

Structure (SMILES): Cc1c2c(c(C)c3ccccc13)[C@H]1O[C@H]1c1ccccc1-2
- mutagenic call [4]: active; positive

Structure (SMILES): CCC/C=C(/C=O)CC
- mutagenic call (Test System: AMES SALMONELLA TYPHIMURIUM, Strain/Indicator: TA97, Metabolic Activation: HAMSTER, LIVER, S-9, AROCLOR 1254 (10 OR 30%), Method: PREINCUBATION): inactive; negative
- mutagenic call (Test System: AMES SALMONELLA TYPHIMURIUM, Strain/Indicator: TA97, Metabolic Activation: NONE, Method: PREINCUBATION): inactive; negative
- mutagenic call (Test System: AMES SALMONELLA TYPHIMURIUM, Strain/Indicator: TA97, Metabolic Activation: RAT, LIVER, S-9, AROCLOR 1254 (10 OR 30%), Method: PREINCUBATION): inactive; negative
- mutagenic call (Test System: AMES SALMONELLA TYPHIMURIUM, Strain/Indicator: TA98, Metabolic Activation: HAMSTER, LIVER, S-9, AROCLOR 1254 (10 OR 30%), Method: PREINCUBATION): inactive; negative
- mutagenic call [4]: inactive; negative
- mutagenic call (Test System: AMES SALMONELLA TYPHIMURIUM, Strain/Indicator: TA98, Metabolic Activation: RAT, LIVER, S-9, AROCLOR 1254 (10 OR 30%), Method: PREINCUBATION): inactive; negative
- mutagenic call (Test System: AMES SALMONELLA TYPHIMURIUM, Strain/Indicator: TA100, Metabolic Activation: HAMSTER, LIVER, S-9, AROCLOR 1254 (10 OR 30%), Method: PREINCUBATION): inactive; negative
- mutagenic call (Test System: AMES SALMONELLA TYPHIMURIUM, Strain/Indicator: TA100, Metabolic Activation: NONE, Method: PREINCUBATION): inactive; negative
- mutagenic call (Test System: AMES SALMONELLA TYPHIMURIUM, Strain/Indicator: TA100, Metabolic Activation: RAT, LIVER, S-9, AROCLOR 1254 (10 OR 30%), Method: PREINCUBATION): inactive; negative
- mutagenic call (Test System: AMES SALMONELLA TYPHIMURIUM, Strain/Indicator: TA1535, Metabolic Activation: HAMSTER, LIVER, S-9, AROCLOR 1254 (10 OR 30%), Method: PREINCUBATION): inactive; negative
- mutagenic call (Test System: AMES SALMONELLA TYPHIMURIUM, Strain/Indicator: TA1535, Metabolic Activation: NONE, Method: PREINCUBATION): inactive; negative
- mutagenic call (Test System: AMES SALMONELLA TYPHIMURIUM, Strain/Indicator: TA1535, Metabolic Activation: RAT, LIVER, S-9, AROCLOR 1254 (10 OR 30%), Method: PREINCUBATION): inactive; negative

Structure (SMILES): CC1=C[C@H]2O[C@@H]3[C@H](O)C[C@](C)([C@@]2(CO)[C@H](O)C1=O)[C@]31CO1
- mutagenic call (End Point: IN VITRO CHROMOSOMAL ABERRATIONS, Test System: CHINESE HAMSTER V79 CELLS, Metabolic Activation: NONE): active; positive (structural changes)
- mutagenic call [1]: inactive; negative
- mutagenic call (Test System: AMES SALMONELLA TYPHIMURIUM, Strain/Indicator: TA98, Metabolic Activation: RAT LIVER S-9, DELOR 103, Method: STANDARD PLATE): inactive; negative
- mutagenic call [3]: inactive; negative
- mutagenic call [2]: inactive; negative
- mutagenic call (Test System: AMES SALMONELLA TYPHIMURIUM, Strain/Indicator: TA100, Metabolic Activation: RAT LIVER S-9, DELOR 103, Method: STANDARD PLATE): inactive; negative
- mutagenic call (Test System: AMES SALMONELLA TYPHIMURIUM, Strain/Indicator: TA100, Metabolic Activation: RAT, LIVER, S-9, AROCLOR 1254, Method: STANDARD PLATE): inactive; negative

Structure (SMILES): CC(C)(C)c1ccc(-c2ccc(N=O)cc2)cc1
- mutagenic call [1]: active; positive
- mutagenic call (Test System: AMES SALMONELLA TYPHIMURIUM, Strain/Indicator: TA98, Metabolic Activation: S-9, Method: STANDARD PLATE): active; positive
- mutagenic call [2]: active; positive
- mutagenic call (Test System: AMES SALMONELLA TYPHIMURIUM, Strain/Indicator: TA100, Metabolic Activation: S-9, Method: STANDARD PLATE): active; positive
